Measurements as given in patent publication US6472418B1, “Non-peptide NK1 receptors antagonists” (Warner-Lambert Company, priority 1998, dated 2002).
pIC50: −log10 of the molar value.

biological target: T1, Human NK1 Receptor (Homo sapiens, UniProt P25103); assay: In Vitro Human NK1 Receptor Binding Assay ([125I]Bolton-Hunter substance P displacement, IM9 cells); settings: Human lymphoma IM9 cells, [125I]Bolton-Hunter substance P (0.05-0.1 nM), 50 min at 21° C.; Table 1; read-out: NK1 binding IC50
T1 construct: endogenous in cells; host or cells: Human lymphoma IM9 cells (whole cells)
Description: They have been evaluated in an NK1-receptor binding assay which is described below.
Human lymphoma IM9 cells were grown in RPMI 1640 culture medium supplemented with 10% fetal calf serum and 2 mM glutamine and maintained under an atmosphere of 5% CO2. Cells were passaged every 3-4 days by reseeding to a concentration of 4-8×10^6/40 ml per 175 cm^2 flask. Cells were harvested for experiments by centrifugation at 1000 g for 3 min. Pelleted cells were washed once by resuspension into assay buffer (50 mM Tris HCl pH 7.4, 3 mM MnCl2, 0.02% BSA, […] bacitracin, […] chymostatin, 2 mM phosphoramidon, […] leupeptin) and repeating the centrifugation step before resuspending at a concentration of 2.5×10^6 cells/mL assay buffer. Cells ([…]) were incubated with [^125I]Bolton-Hunter substance P (0.05-0.1 nM) in the presence and absence of varying concentrations of test compounds for 50 min at 21° C. Non-specific binding (10% of the total binding observed under these conditions) was defined by […] [Sar^9, Met(02)^11] substance P. Reactions were terminated by rapid filtration under vacuum onto GF\C filters presoaked in 0.2% PEI for 1-2 h, using a Brandel cell harvester. Filters were washed with 6×1 ml ice-cold Tris HCl (50 mM, pH 7.4) and radioactivity bound determined using a gamma couter. Results were analyzed using iterative curve fitting procedures in RS1 or Graphpad Inplot.

T1 sequence (P25103 whole entry): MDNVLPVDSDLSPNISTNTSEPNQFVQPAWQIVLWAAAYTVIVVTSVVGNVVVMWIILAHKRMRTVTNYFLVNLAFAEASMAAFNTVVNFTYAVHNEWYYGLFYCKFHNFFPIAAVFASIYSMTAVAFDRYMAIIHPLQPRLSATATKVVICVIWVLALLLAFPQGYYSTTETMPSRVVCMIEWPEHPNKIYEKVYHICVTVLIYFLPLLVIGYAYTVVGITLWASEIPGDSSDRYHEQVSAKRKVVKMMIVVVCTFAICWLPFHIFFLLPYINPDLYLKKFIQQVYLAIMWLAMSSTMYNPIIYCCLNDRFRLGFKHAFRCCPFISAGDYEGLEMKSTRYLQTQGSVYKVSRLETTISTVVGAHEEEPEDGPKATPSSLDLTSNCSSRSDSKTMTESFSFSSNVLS

pIC50 | Structure (SMILES)
8.04 | C[C@H](NC(=O)[C@@H](Cc1c[nH]c2ccccc12)NCc1cccc(OC(F)(F)F)c1)c1ccccc1 (relative stereo) [Example 16, 3-(1H-Indol-3-yl)-N-(1-phenyl-ethyl)-2-(3-trifluoromethoxy-benzylamino)-propionamide, [R-(R*,S*)]]
6.46 | C[C@H](NC(=O)[C@@H](Cc1c[nH]c2ccccc12)NCc1cccc(O)c1)c1ccccc1 (relative stereo) [Example 17, 2-(3-Hydroxy-benzylamino)-3-(1H-indol-3-yl)-N-(1-phenyl-ethyl)-propionamide, [R-(R*,S*)]]
5.74 | C[C@H](NC(=O)[C@@](C)(Cc1c[nH]c2ccccc12)NCc1ccn[nH]1)c1ccccc1 (relative stereo) [Example 21, 3-(1H-Indol-3-yl)-2-methyl-N-(1-phenyl-ethyl)-2-[(2H-pyrazol-3-ylmethyl)-amino]-propionamide, [R-(R*,S*)]]

same assay, conditions: Human lymphoma IM9 cells, [125I]Bolton-Hunter substance P; Table 3, array-synthesis products; read-out: IC50 (nM) hNK1

Structure (SMILES) | IC50
O=C(NC1CCCc2ccccc21)C(Cc1c[nH]c2ccccc12)NCc1cc2ccccc2o1 (stereo not drawn) [Example 194, 2-[(Benzofuran-2-ylmethyl)-amino]-3-(1H-indol-3-yl)-N-(1,2,3,4-tetrahydro-naphthalen-1-yl)-propionamide] | 703 nM
O=C(NC1CCc2ccccc21)C(Cc1c[nH]c2ccccc12)NCc1cc2ccccc2o1 (stereo not drawn) [Example 195, 2-[(Benzofuran-2-ylmethyl)-amino]-N-indan-1-yl-3-(1H-indol-3-yl)-propionamide] | 1750 nM
CCC(NC(=O)C(Cc1c[nH]c2ccccc12)NCc1cc2ccccc2o1)c1cccs1 (stereo not drawn) [Example 196, 2-[(Benzofuran-2-ylmethyl)-amino]-3-(1H-indol-3-yl)-N-(1-thiophen-2-yl-propyl)-propionamide] | 92 nM
CC(NC(=O)C(Cc1c[nH]c2ccccc12)NCc1cc2ccccc2o1)c1cccc2ccccc12 (stereo not drawn) [Example 197, 2-[(Benzofuran-2-ylmethyl)-amino]-3-(1H-indol-3-yl)-N-(1-naphthalen-1-yl-ethyl)-propionamide] | 933 nM
O=C(NCc1cccc(OC(F)(F)F)c1)C(Cc1c[nH]c2ccccc12)NCc1cc2ccccc2o1 (stereo not drawn) [Example 200, 2-[(Benzofuran-2-ylmethyl)-amino]-3-(1H-indol-3-yl)-N-(3-trifluoromethoxy-benzyl)-propionamide] | 355 nM
O=C(NCC1CCNCC1)C(Cc1c[nH]c2ccccc12)NCc1cc2ccccc2o1 (stereo not drawn) [Example 203, 2-[(Benzofuran-2-ylmethyl)-amino]-3-(1H-indol-3-yl)-N-piperidin-4-ylmethyl-propionamide] | > 10000 nM
O=C(NCc1cnc2ccccc2c1)C(Cc1c[nH]c2ccccc12)NCc1cc2ccccc2o1 (stereo not drawn) [Example 205, 2-[(Benzofuran-2-ylmethyl)-amino]-3-(1H-indol-3-yl)-N-quinolin-3-ylmethyl-propionamide] | 2320 nM
CC(NC(=O)C(Cc1c[nH]c2ccccc12)NCc1cc2ccccc2o1)c1cccc2ccccc12 (stereo not drawn) [Example 207, 2-[(Benzofuran-2-ylmethyl)-amino]-3-(1H-indol-3-yl)-N-(1-naphthalen-1-yl-ethyl)-propionamide] | 591 nM
Cc1ccc(C(C)NC(=O)C(Cc2c[nH]c3ccccc23)NCc2cc3ccccc3o2)s1 (stereo not drawn) [Example 208, 2-[(Benzofuran-2-ylmethyl)-amino]-3-(1H-indol-3-yl)-N-[1-(5-methyl-thiophen-2-yl)-ethyl]-propionamide] | 15 nM
O=C(NC1(CO)CCCC1)C(Cc1c[nH]c2ccccc12)NCc1cc2ccccc2o1 (stereo not drawn) [Example 211, 2-[(Benzofuran-2-ylmethyl)-amino]-N-(1-hydroxymethylcyclopentyl)-3-(1H-indol-3-yl)-propionamide] | > 10000 nM

The next lines start with the values.

IC50 | Structure (SMILES)
1980 nM | O=C(NCc1ccccn1)C(Cc1c[nH]c2ccccc12)NCc1cc2ccccc2o1 (stereo not drawn) [Example 192, 2-[(Benzofuran-2-ylmethyl)-amino]-3-(1H-indol-3-yl)-N-pyridin-2-ylmethyl-propionamide]
> 10000 nM | O=C(NCCN1CCNCC1)C(Cc1c[nH]c2ccccc12)NCc1cc2ccccc2o1 (stereo not drawn) [Example 193, 2-[(Benzofuran-2-ylmethyl)-amino]-3-(1H-indol-3-yl)-N-(2-piperazin-1-yl-ethyl)-propionamide]
> 10000 nM | CN1CCCC1CCNC(=O)C(Cc1c[nH]c2ccccc12)NCc1cc2ccccc2o1 (stereo not drawn) [Example 198, 2-[(Benzofuran-2-ylmethyl)-amino]-3-(1H-indol-3-yl)-N-[2-(1-methyl-pyrrolidin-2-yl)-ethyl]-propionamide]
130 nM | COc1ccc(CNC(=O)C(Cc2c[nH]c3ccccc23)NCc2cc3ccccc3o2)cc1 (stereo not drawn) [Example 199, 2-[(Benzofuran-2-ylmethyl)-amino]-3-(1H-indol-3-yl)-N-(4-methoxy-benzyl)-propionamide]
> 10000 nM | O=C(NCCCn1ccnc1)C(Cc1c[nH]c2ccccc12)NCc1cc2ccccc2o1 (stereo not drawn) [Example 201, 2-[(Benzofuran-2-ylmethyl)-amino]-N-(3-imidazol-1-yl-propyl)-3-(1H-indol-3-yl)-propionamide]
2180 nM | O=C(NCC1CCNC1)C(Cc1c[nH]c2ccccc12)NCc1cc2ccccc2o1 (stereo not drawn) [Example 202, 2-[(Benzofuran-2-ylmethyl)-amino]-3-(1H-indol-3-yl)-N-pyrrolidin-3-ylmethyl-propionamide]
68 nM | O=C(NCc1cc(F)ccc1F)C(Cc1c[nH]c2ccccc12)NCc1cc2ccccc2o1 (stereo not drawn) [Example 204, 2-[(Benzofuran-2-ylmethyl)-amino]-N-(2,5-difluoro-benzyl)-3-(1H-indol-3-yl)-propionamide]
6680 nM | O=C(NCCc1c[nH]cn1)C(Cc1c[nH]c2ccccc12)NCc1cc2ccccc2o1 (stereo not drawn) [Example 206, 2-[(Benzofuran-2-ylmethyl)-amino]-N-[2-(1H-imidazol-4-yl)-ethyl]-3-(1H-indol-3-yl)-propionamide]
82 nM | Cc1ccc(CNC(=O)C(Cc2c[nH]c3ccccc23)NCc2cc3ccccc3o2)cc1 (stereo not drawn) [Example 209, 2-[(Benzofuran-2-ylmethyl)-amino]-3-(1H-indol-3-yl)-N-(4-methyl-benzyl)-propionamide]
658 nM | O=C(NCCn1cccc1)C(Cc1c[nH]c2ccccc12)NCc1cc2ccccc2o1 (stereo not drawn) [Example 212, 2-[(Benzofuran-2-ylmethyl)-amino]-3-(1H-indol-3-yl)-N-(2-pyrrol-1-yl-ethyl)-propionamide]
1260 nM | O=C(NCCN1CCOCC1)C(Cc1c[nH]c2ccccc12)NCc1cc2ccccc2o1 (stereo not drawn) [Example 213, 2-[(Benzofuran-2-ylmethyl)-amino]-3-(1H-indol-3-yl)-N-(2-morpholin-4-yl-ethyl)-propionamide]
4010 nM | CN(C)c1ccc(CNC(=O)C(Cc2c[nH]c3ccccc23)NCc2cc3ccccc3o2)cc1 (stereo not drawn) [Example 214, 2-[(Benzofuran-2-ylmethyl)-amino]-N-(4-dimethylamino-benzyl)-3-(1H-indol-3-yl)-propionamide]
70 nM | O=C(NCc1cc(Cl)sc1Cl)C(Cc1c[nH]c2ccccc12)NCc1cc2ccccc2o1 (stereo not drawn) [Example 215, 2-[(Benzofuran-2-ylmethyl)-amino]-N-(2,5-dichloro-thiophen-3-ylmethyl)-3-(1H-indol-3-yl)-propionamide]
> 10000 nM | O=C(NCc1ccc([N+](=O)[O-])o1)C(Cc1c[nH]c2ccccc12)NCc1cc2ccccc2o1 (stereo not drawn) [Example 216, 2-[(Benzofuran-2-ylmethyl)-amino]-3-(1H-indol-3-yl)-N-(5-nitro-furan-2-ylmethyl)-propionamide]
